Values after ≈ are worked out from the molar mass of the structure shown.
Assays:
Assay type in all cases: functional
[1] = tested on: Acinetobacter baumannii; test: Ratio of MIC for Acinetobacter baumannii ATCC 17978 harboring plasmid pWHP825 to MIC for Acinetobacter baumannii ATCC 17978 harboring plasmid 1266
[2] = tested on: Acinetobacter baumannii; test: Antibacterial activity against Acinetobacter baumannii ATCC 17978 harboring plasmid directed expression of beta-lactamase OXA-58 under an ISAba825-ISAba3 hybrid and ISAba3-derived promoter sequence
[3] = tested on: Acinetobacter baumannii; test: Antibacterial activity against Acinetobacter baumannii ATCC 17978 harboring plasmid 1266
[4] = tested on: Acinetobacter baumannii; test: Antibacterial activity against Acinetobacter baumannii ATCC 17978 harboring plasmid directed expression of beta-lactamase OXA-58 under an ISAba3 promoter
[5] = tested on: Acinetobacter baumannii; test: Antibacterial activity against Acinetobacter baumannii ATCC 17978
[6] = tested on: Acinetobacter baumannii; test: Antibacterial activity against Acinetobacter baumannii ATCC 17978 harboring pAB880
[7] = tested on: Acinetobacter baumannii; test: Antibacterial activity against Acinetobacter baumannii Ab880 overexpressing beta-lactamase OXA-58 under the control of ISAba825 insertion sequence

| Structure (SMILES) | Ratio [1] | MIC [2] [µg/mL] | MIC [3] [µg/mL] | MIC [4] [µg/mL] | MIC [5] [µg/mL] | MIC [6] [µg/mL] | MIC [7] [µg/mL] |
| --- | --- | --- | --- | --- | --- | --- | --- |
| C[C@@H](O)[C@H]1C(=O)N2C(C(=O)O)=C(SCCNC=N)C[C@H]12 [IMIPENEM ANHYDROUS] | 128 | 32 (≈ 107 µM) | 0.25 (≈ 0.835 µM) | 0.5 (≈ 1.67 µM) | 0.25 (≈ 0.835 µM) | 16 (≈ 53.4 µM) | 16 (≈ 53.4 µM) |
| C[C@@H](O)[C@H]1C(=O)N2C(C(=O)O)=C(S[C@@H]3CN[C@H](C(=O)N(C)C)C3)[C@H](C)[C@H]12 [MEROPENEM] | 64 | 16 (≈ 41.7 µM) | 0.25 (≈ 0.652 µM) | 0.5 (≈ 1.3 µM) | 0.25 (≈ 0.652 µM) | 8 (≈ 20.9 µM) | 16 (≈ 41.7 µM) |
